Laboratory results: patent US4426447A, “Homocitric acid oligoriboside derivative for prevention of dental caries” (Zaidan Hojin Biseibutsu Kagaku Kenkyu Kai, priority 1980, dated 1984)
Where a name gives a salt, the structure may show the parent alone. Read-outs that look alike come from different tables or passages of the source.

How the values were obtained:
[1] = Solubility (characterizing properties); type: physicochemical; conditions: sodium salt
Excerpt: Ribocitrin in the form of its sodium salt has the following characterizing properties:
2. Soluble in water; insoluble in organic solvents.

[2] = test system: Streptococcus mutans ATCC 27607; test: Inhibition of Streptococcus mutans adherence (adhered plaque turbidity); type: cell-based; conditions: for Turbidity (600 nm): 37° C., 14 hours; for inhibition at 50 µg/mL / inhibition at 100 µg/mL: Streptococcus mutans, ATCC27607, 14 h
Description: Heart Infusion bouillon (Difco) containing various concentrations of sucrose was autoclaved and added aseptically with various amounts of ribocitrin aqueous solution (filter-sterilized) or sterile water for control (final volume is 3.0 ml and final concentrations are shown in Table 1). Each tube was inoculated with 1×10^5 CFU of Streptococcus mutans ATCC 27607 grown overnight at 37° C. in Brain Heart Infusion bouillon (Difco) and incubated anaerobically in a candle jar at 37° C. for 14 hours. The tube was positioned at an angle 30° from the horizontal. Nonadherent cells were removed by pouring off the broth and the test tube was washed three times with 3 ml of 5 mM phosphate buffer (pH 6.0). The adhered plaque (insoluble dextran and cellular aggregates formed as a result of insoluble dextran production) was suspended in 3 ml of phosphate buffer described above by mechanical stirring and by scraping the surface with a glass rod. Turbidity of the suspension was measured at 600 nm.

dextransucrase = test: Inhibitory activity to dextransucrase (turbidity at 600 nm); type: biochemical, Streptococcus mutans ATCC 27607; conditions: qualitative statement; curve only in FIG. 4
Description: Dextransucrase was prepared as follows: Streptococcus mutans ATCC 27607 was inoculated to Brain Heart Infusion bouillon (Eiken Chemical Co.) and grown overnight at 37° C. The culture supernatant obtained by centrifugation was precipitated with ammonium sulfate at 50% saturation. The precipitated enzyme was desalted and purified by conventional procedures.

Row | SMILES | Solubility in organic solvents ([1]; organic solvents) | Solubility in water ([1]; water) | Turbidity (600 nm) ([2]; 50 μg/ml ribocitrin sodium salt, 0.5% sucrose) | Turbidity (600 nm) ([2]; 50 μg/ml ribocitrin sodium salt, 1.0% sucrose) | Turbidity (600 nm) ([2]; 50 μg/ml ribocitrin sodium salt, 2.0% sucrose) | Turbidity (600 nm) ([2]; 100 μg/ml ribocitrin sodium salt, 0.5% sucrose) | Turbidity (600 nm) ([2]; 100 μg/ml ribocitrin sodium salt, 1.0% sucrose) | Turbidity (600 nm) ([2]; 100 μg/ml ribocitrin sodium salt, 2.0% sucrose) | inhibition at 50 µg/mL ([2]; read-out: Percent inhibition, 50 μg/ml ribocitrin sodium salt, 0.5% sucrose, 37° C.) [%] | inhibition at 50 µg/mL ([2]; read-out: Percent inhibition, 50 μg/ml ribocitrin sodium salt, 1.0% sucrose, 37° C.) [%] | inhibition at 50 µg/mL ([2]; read-out: Percent inhibition, 50 μg/ml ribocitrin sodium salt, 2.0% sucrose, 37° C.) [%] | inhibition at 100 µg/mL ([2]; read-out: Percent inhibition, 100 μg/ml ribocitrin sodium salt, 0.5% sucrose, 37° C.) [%] | inhibition at 100 µg/mL ([2]; read-out: Percent inhibition, 100 μg/ml ribocitrin sodium salt, 1.0% sucrose, 37° C.) [%] | inhibition at 100 µg/mL ([2]; read-out: Percent inhibition, 100 μg/ml ribocitrin sodium salt, 2.0% sucrose, 37° C.) [%] | Inhibitory activity toward dextransucrase (in words) (dextransucrase)
1 | O=C(O)CC[C@@](CC(=O)O)(O[C@H]1O[C@H](CO)[C@@H](O[C@H]2O[C@H](CO)[C@@H](O)[C@H]2O[C@H]2O[C@H](CO)[C@@H](O)[C@H]2O)[C@H]1O)C(=O)O [Ribocitrin (sodium salt)] | insoluble | Soluble | 0.510 | 0.340 | 0.333 | 0.249 | 0.173 | 0.132 | 17 | 43 | 33 | 60 | 71 | 73 | –
2 | O=C(O)CC[C@@](CC(=O)O)(O[C@H]1O[C@H](CO)[C@@H](O[C@H]2O[C@H](CO)[C@@H](O)[C@H]2O[C@H]2O[C@H](CO)[C@@H](O)[C@H]2O)[C@H]1O)C(=O)O [ribocitrin, 2-(S)-[O-α-D-ribofuranosyl-(1→2)-O-α-D-ribofuranosyl-(1→3)-α-D-ribofuranosyloxy]-1,2,4-butanetricarboxylic acid] | – | – | – | – | – | – | – | – | – | – | – | – | – | – | effective inhibitors of dextransucrase
